Series [1] concerns Streptococcus pneumoniae. Put plainly: Antimicrobial activity against Streptococcus pneumoniae ATCC 49619 assessed as growth inhibition measured after 8 hrs incubation by standard broth dilution assay. The format is functional.
The test system of series [2] is Pseudomonas aeruginosa. Put plainly: Antimicrobial activity against Pseudomonas aeruginosa ATCC 27853 assessed as growth inhibition measured after 8 hrs incubation by standard broth dilution assay. Format: functional.
In series [3] the test system is Klebsiella pneumoniae. Nature of the series: Antimicrobial activity against Klebsiella pneumoniae ATCC 13883 assessed as growth inhibition measured after 8 hrs incubation by standard broth dilution assay. Format: functional.
The subject of series [4] is Staphylococcus aureus. Put plainly: Antimicrobial activity against methicillin-resistant Staphylococcus aureus ATCC 43300 assessed as growth inhibition measured after 8 hrs incubation by standard broth dilution assay. The format is functional.
Series [5] in a line: Hemolytic activity in BALB/c mouse red blood cells assessed as hemolysis incubated for 1 hrs. Format: toxicity, cell-based, Erythrocyte. Conditions: read-out: HD50.

≈ marks a conversion by molar mass, not a printed value. Starred links: 1 amine or outer side, 2 acyl side, 3 side chain; linkers in the order of their positions; H or OH if unused. Positions of bridges follow the written chain, without caps; N, C: chain ends. Non-standard residues stand in square brackets, D forms with d. Residues, ends and D or L forms follow the SMILES beside them. Arg(Nω-βLac) = N=C(NCCC[C@H](N)C(=O)O)N[C@@H]1O[C@H](CO)[C@@H](O[C@@H]2O[C@H](CO)[C@H](O)[C@H](O)[C@H]2O)[C@H](O)[C@H]1O; X2 = CC(=O)N[C@@H]1[C@@H](O)[C@H](O)[C@@H](CO)O[C@H]1NC(=N)NCCC[C@H](N[*:1])C(=O)[*:2]; S5 = C=CCCC[C@](C)(N)C(=O)O

Turning to `CC(=O)N[C@@H]1[C@@H](O)[C@H](O)[C@@H](CO)O[C@H]1NC(=N)NCCC[C@H](NC(=O)[C@@H](NC(=O)[C@@H]1CCCN1C(=O)[C@H](CCCCN)NC(=O)[C@H](CCCCN)NC(=O)[C@H](CC(C)C)NC(=O)[C@H](CCC(N)=O)NC(=O)[C@H](CCCNC(=N)N)NC(=O)[C@H](Cc1c[nH]c2ccccc12)NC(=O)[C@H](Cc1ccc(O)cc1)NC(=O)[C@H](CCCNC(=N)N)NC(=O)[C@H](CCCCN)NC(=O)[C@H](CC(C)C)NC(=O)[C@H](CC(C)C)NC(=O)[C@H](CCCCN)NC(=O)[C@H](Cc1ccccc1)NC(=O)[C@@H](NC(=O)[C@H](CCCNC(=N)N)NC(=O)[C@H](CCCCN)NC(=O)[C@H](Cc1c[nH]c2ccccc12)NC(=O)[C@@H](NC(=O)[C@H](CCCNC(=N)N)NC(=O)[C@H](CCCCN)NC(=O)[C@H](CC(C)C)NC(C)=O)C(C)C)C(C)C)C(C)C)C(N)=O` (Ac-LKRVWKRVFKLLKRYWRQLKKPV[X2]-NH2), the MIC in series [1] came out at 4.7 µg/mL (≈ 1.35 µM); in series [2], 5 µg/mL (≈ 1.44 µM); in series [3], 38 µg/mL (≈ 10.9 µM); in series [4], 4.9 µg/mL (≈ 1.41 µM). For the same compound, the HC50 at 1 h in series [5] was 35.8 µg/mL.
For `CC(=O)N[C@@H](CC(C)C)C(=O)N[C@@H](CCCCN)C(=O)N[C@@H](CCCNC(=N)N)C(=O)N[C@H](C(=O)N[C@@H](Cc1c[nH]c2ccccc12)C(=O)N[C@@H](CCCCN)C(=O)N[C@@H](CCCNC(=N)N)C(=O)N[C@H](C(=O)N[C@@H](Cc1ccccc1)C(=O)N[C@@H](CCCCN)C(=O)N[C@@H](CC(C)C)C(=O)N[C@@H](CC(C)C)C(=O)N[C@@H](CCCCN)C(=O)N[C@@]1(C)CCC/C=C\CCC[C@@](C)(C(=O)N[C@@H](CC(C)C)C(=O)N[C@@H](CCCCN)C(=O)N[C@@H](CCCCN)C(=O)N2CCC[C@H]2C(=O)N[C@H](C(=O)N[C@@H](CCCNC(=N)N)C(N)=O)C(C)C)NC(=O)[C@H](CCCNC(=N)N)NC(=O)[C@H](Cc2c[nH]c3ccccc23)NC(=O)[C@H](CCCCN)NC1=O)C(C)C)C(C)C` (Ac-LKRVWKRVFKLLK[S5]KWR[S5]LKKPVR-NH2; staple (Z) 14-18) the same measures were 2.4 µg/mL (≈ 0.75 µM), 5 µg/mL (≈ 1.56 µM), 38 µg/mL (≈ 11.9 µM), 10.1 µg/mL (≈ 3.16 µM) and 53.6 µg/mL.
For `CC(=O)N[C@@H](CC(C)C)C(=O)N[C@@H](CCCCN)C(=O)N[C@@H](CCCNC(=N)N)C(=O)N[C@H](C(=O)N[C@@H](Cc1c[nH]c2ccccc12)C(=O)N[C@@H](CCCCN)C(=O)N[C@@H](CCCNC(=N)N)C(=O)N[C@H](C(=O)N[C@@H](Cc1ccccc1)C(=O)N[C@@H](CCCCN)C(=O)N[C@@H](CC(C)C)C(=O)N[C@@H](CC(C)C)C(=O)N[C@@H](CCCCN)C(=O)N[C@@]1(C)CCC/C=C\CCC[C@@](C)(C(=O)N[C@@H](CC(C)C)C(=O)N[C@@H](CCCCN)C(=O)N[C@@H](CCCCN)C(=O)N2CCC[C@H]2C(=O)N[C@H](C(=O)N[C@@H](CCCNC(=N)N)C(N)=O)C(C)C)NC(=O)[C@H](CCCNC(=N)N)NC(=O)[C@H](CCCCN)NC(=O)[C@H](Cc2ccc(O)cc2)NC1=O)C(C)C)C(C)C` (Ac-LKRVWKRVFKLLK[S5]YKR[S5]LKKPVR-NH2; staple (Z) 14-18), in that order: 4.7 µg/mL (≈ 1.48 µM), 5 µg/mL (≈ 1.57 µM), 38 µg/mL (≈ 12 µM), 4.9 µg/mL (≈ 1.54 µM) and 21 µg/mL.
Turning to `CC(=O)N[C@@H](CC(C)C)C(=O)N[C@@H](CCCCN)C(=O)N[C@@H](CCCNC(=N)N)C(=O)N[C@H](C(=O)N[C@@H](Cc1c[nH]c2ccccc12)C(=O)N[C@@H](CCCCN)C(=O)N[C@@H](CCCNC(=N)N)C(=O)N[C@H](C(=O)N[C@@H](Cc1ccccc1)C(=O)N[C@@H](CCCCN)C(=O)N[C@@H](CC(C)C)C(=O)N[C@@H](CC(C)C)C(=O)N[C@@H](CCCCN)C(=O)N[C@@]1(C)CCC/C=C\CCC[C@@](C)(C(=O)N[C@@H](CCCCN)C(=O)N[C@@H](CCCCN)C(=O)N[C@@H](CCCCN)C(=O)N2CCC[C@H]2C(=O)N[C@H](C(=O)N[C@@H](CCCNC(=N)N)C(N)=O)C(C)C)NC(=O)[C@H](CCCNC(=N)N)NC(=O)[C@H](Cc2c[nH]c3ccccc23)NC(=O)[C@H](Cc2ccc(O)cc2)NC1=O)C(C)C)C(C)C` (Ac-LKRVWKRVFKLLK[S5]YWR[S5]KKKPVR-NH2; staple (Z) 14-18), the MIC in series [1] was found to be 4.7 µg/mL (≈ 1.45 µM); in series [2], 5 µg/mL (≈ 1.54 µM); in series [3] it was 19 µg/mL (≈ 5.85 µM); in series [4] it was 10.1 µg/mL (≈ 3.11 µM). Besides, in series [5], the HC50 at 1 h was 10.8 µg/mL.
For the compound `CC(=O)N[C@@H](CC(C)C)C(=O)N[C@@H](CCCCN)C(=O)N[C@@H](CCCNC(=N)N)C(=O)N[C@H](C(=O)N[C@@H](Cc1c[nH]c2ccccc12)C(=O)N[C@@H](CCCCN)C(=O)N[C@@H](CCCNC(=N)N)C(=O)N[C@H](C(=O)N[C@@H](Cc1ccccc1)C(=O)N[C@@H](CCCCN)C(=O)N[C@@H](CC(C)C)C(=O)N[C@@H](CC(C)C)C(=O)N[C@@H](CCCCN)C(=O)N[C@@]1(C)CCC/C=C\CCC[C@@](C)(C(=O)N[C@@H](CC(C)C)C(=O)N[C@@H](CCCCN)C(=O)N[C@@H](CCCCN)C(=O)N[C@@H](CCCCN)C(=O)N[C@H](C(=O)N[C@@H](CCCNC(=N)N)C(N)=O)C(C)C)NC(=O)[C@H](CCCNC(=N)N)NC(=O)[C@H](Cc2c[nH]c3ccccc23)NC(=O)[C@H](Cc2ccc(O)cc2)NC1=O)C(C)C)C(C)C` (Ac-LKRVWKRVFKLLK[S5]YWR[S5]LKKKVR-NH2; staple (Z) 14-18), the MIC is 4.7 µg/mL (≈ 1.44 µM) in series [1], 5 µg/mL (≈ 1.53 µM) in series [2], 10.1 µg/mL (≈ 3.09 µM) in series [3] and 4.9 µg/mL (≈ 1.5 µM) in series [4]. Also, the HC50 at 1 h in series [5] came out at 13.1 µg/mL.
For `CC(=O)N[C@@H](CC(C)C)C(=O)N[C@@H](CCCCN)C(=O)N[C@@H](CCCNC(=N)N)C(=O)N[C@H](C(=O)N[C@@H](Cc1c[nH]c2ccccc12)C(=O)N[C@@H](CCCCN)C(=O)N[C@@H](CCCNC(=N)N)C(=O)N[C@H](C(=O)N[C@@H](Cc1ccccc1)C(=O)N[C@@H](CCCCN)C(=O)N[C@@H](CC(C)C)C(=O)N[C@@H](CC(C)C)C(=O)N[C@@H](CCCCN)C(=O)N[C@@]1(C)CCC/C=C\CCC[C@@](C)(C(=O)N[C@@H](CC(C)C)C(=O)N[C@@H](CCCCN)C(=O)N[C@@H](CCCCN)C(=O)N2CCC[C@H]2C(=O)N[C@@H](CCCCN)C(=O)N[C@@H](CCCNC(=N)N)C(N)=O)NC(=O)[C@H](CCCNC(=N)N)NC(=O)[C@H](Cc2c[nH]c3ccccc23)NC(=O)[C@H](Cc2ccc(O)cc2)NC1=O)C(C)C)C(C)C` (Ac-LKRVWKRVFKLLK[S5]YWR[S5]LKKPKR-NH2; staple (Z) 14-18) the same measures were 4.7 µg/mL (≈ 1.44 µM), 5 µg/mL (≈ 1.53 µM), 19.2 µg/mL (≈ 5.89 µM), 4.9 µg/mL (≈ 1.5 µM) and 8.9 µg/mL.
As to `CC(=O)N[C@@H](CC(C)C)C(=O)N[C@@H](CCCCN)C(=O)N[C@@H](CCCNC(=N)N)C(=O)N[C@H](C(=O)N[C@@H](Cc1c[nH]c2ccccc12)C(=O)N[C@@H](CCCCN)C(=O)N[C@@H](CCCNC(=N)N)C(=O)N[C@H](C(=O)N[C@@H](Cc1ccccc1)C(=O)N[C@@H](CCCCN)C(=O)N[C@@H](CC(C)C)C(=O)N[C@@H](CC(C)C)C(=O)N[C@@H](CCCCN)C(=O)N[C@@]1(C)CCC/C=C\CCC[C@@](C)(C(=O)N[C@@H](CC(C)C)C(=O)N[C@@H](CCCCN)C(=O)N[C@@H](CCCCN)C(=O)N2CCC[C@H]2C(=O)N[C@H](C(=O)N[C@@H](CCCNC(=N)N)C(N)=O)C(C)C)NC(=O)[C@H](CCCNC(=N)N)NC(=O)[C@H](Cc2c[nH]c3ccccc23)NC(=O)[C@H](Cc2ccc(O)cc2)NC1=O)C(C)C)C(C)C` (Ac-LKRVWKRVFKLLK[S5]YWR[S5]LKKPVR-NH2; staple (Z) 14-18), the MIC in series [1] came out at 2.4 µg/mL (≈ 0.742 µM); in series [2], 5 µg/mL (≈ 1.55 µM); in series [3], 2.5 µg/mL (≈ 0.773 µM); in series [4], 4.9 µg/mL (≈ 1.52 µM). For the same compound, the HC50 at 1 h in series [5] was 12.2 µg/mL.
For `CC(=O)N[C@@H](CC(C)C)C(=O)N[C@@H](CCCCN)C(=O)N[C@@H](CCCNC(=N)N)C(=O)N[C@H](C(=O)N[C@@H](Cc1c[nH]c2ccccc12)C(=O)N[C@@H](CCCCN)C(=O)N[C@@H](CCCNC(=N)N)C(=O)N[C@H](C(=O)N[C@@H](CCCCN)C(=O)N[C@@H](CCCCN)C(=O)N[C@@H](CC(C)C)C(=O)N[C@@H](CC(C)C)C(=O)N[C@@H](CCCCN)C(=O)N[C@@]1(C)CCC/C=C\CCC[C@@](C)(C(=O)N[C@@H](CC(C)C)C(=O)N[C@@H](CCCCN)C(=O)N[C@@H](CCCCN)C(=O)N2CCC[C@H]2C(=O)N[C@H](C(=O)N[C@@H](CCCNC(=N)N)C(N)=O)C(C)C)NC(=O)[C@H](CCCNC(=N)N)NC(=O)[C@H](Cc2c[nH]c3ccccc23)NC(=O)[C@H](Cc2ccc(O)cc2)NC1=O)C(C)C)C(C)C` (Ac-LKRVWKRVKKLLK[S5]YWR[S5]LKKPVR-NH2; staple (Z) 14-18) the same measures were 2.4 µg/mL (≈ 0.747 µM), 5 µg/mL (≈ 1.56 µM), 19.2 µg/mL (≈ 5.97 µM), 4.9 µg/mL (≈ 1.52 µM) and 38 µg/mL.
For `CC(=O)N[C@@H](CC(C)C)C(=O)N[C@@H](CCCCN)C(=O)N[C@@H](CCCNC(=N)N[C@@H]1O[C@H](CO)[C@@H](O[C@@H]2O[C@H](CO)[C@H](O)[C@H](O)[C@H]2O)[C@H](O)[C@H]1O)C(=O)N[C@H](C(=O)N[C@@H](Cc1c[nH]c2ccccc12)C(=O)N[C@@H](CCCCN)C(=O)N[C@@H](CCCNC(=N)N)C(=O)N[C@H](C(=O)N[C@@H](Cc1ccccc1)C(=O)N[C@@H](CCCCN)C(=O)N[C@@H](CC(C)C)C(=O)N[C@@H](CC(C)C)C(=O)N[C@@H](CCCCN)C(=O)N[C@@H](CCCNC(=N)N)C(=O)N[C@@H](Cc1ccc(O)cc1)C(=O)N[C@@H](Cc1c[nH]c2ccccc12)C(=O)N[C@@H](CCCNC(=N)N)C(=O)N[C@@H](CCC(N)=O)C(=O)N[C@@H](CC(C)C)C(=O)N[C@@H](CCCCN)C(=O)N[C@@H](CCCCN)C(=O)N1CCC[C@H]1C(=O)N[C@H](C(=O)N[C@@H](CCCNC(=N)N)C(N)=O)C(C)C)C(C)C)C(C)C` (Ac-LK[Arg(Nω-βLac)]VWKRVFKLLKRYWRQLKKPVR-NH2), in that order: 9.9 µg/mL (≈ 2.76 µM), 5 µg/mL (≈ 1.39 µM), 38 µg/mL (≈ 10.6 µM), 4.9 µg/mL (≈ 1.36 µM) and 33.8 µg/mL.

Values taken from ChEMBL document CHEMBL6153110, “Peptide Double-Stapling and Arginine N-Glycosylation Triggered the Development of Therapeutic Antimicrobial Peptides Capable of Killing Drug-Resistant Bacteria in Mice” (J Med Chem, 2025).
